Read-outs that look alike come from different tables or passages of the source.
Legend:
PfCRT^Ecu1110 [1] = target: T1, PfCRT^Ecu1110 (Plasmodium falciparum, UniProt Q9N623, A220S/I356L/K76T/N326D); assay: [3H]CQ uptake into Xenopus oocytes, cis-inhibition by unlabelled solute; type: cell-based
Outline: (§1)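 Washed oocytes (ten per treatment) were exposed to label in pH 5.5 ND96 for 1.5 h at 27.5 °C. Buffer was then removed, cells rinsed in ice-cold ND96, lysed in SDS and counted.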

PfCRT^Dd2 [2] = target: T2, PfCRT^Dd2 (Plasmodium falciparum, UniProt Q9N623, A220S/I356T/K76T/M74I/N326S/N75E/Q271E/R371I); assay: as above; type: cell-based
Outline: as §1

PfCRT^3D7 [3] = target: T3, PfCRT^3D7 (Plasmodium falciparum, UniProt Q8IBZ9); assay: cell-based; type: cell-based; conditions: total [3H]CQ transport; for inhibition at 500 µM: [test solute] = 0.5 mM; for inhibition at 1000 µM: [test solute] = 1 mM; for inhibition at 2000 µM: [test solute] = 2 mM
Outline: as §1

PfNT1 = target: T4, PfNT1 (Plasmodium falciparum, UniProt Q8IDM6); assay: cell-based; type: cell-based; conditions: for activity at 5000 µM: total [3H]CQ transport
T4 construct: expressed in transfected cells; host or cells: Xenopus laevis oocytes (stage V-VI), cRNA-injected
Outline: (§2)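 Transport measured in Xenopus oocytes expressing the transporters, 1.5 h at 27.5 °C in ND96 pH 5.5 unless noted. For trans-stimulation, VF-6 injected in 25 nL ND96 at pH 5.0–7.0 or Na^+-free (choline) buffer; intracellular levels based on ~400 nL oocyte volume. Ten oocytes per treatment, ≥4 experiments.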

PfCRT^3D7 [4] = target: T3, PfCRT^3D7; assay: cell-based; type: cell-based
Outline: as §2

PfCRT^Ecu1110 [5] = target: T1, PfCRT^Ecu1110; assay: cell-based; type: cell-based; conditions: […]
Outline: as §2

PfCRT^Dd2 [6] = target: T2, PfCRT^Dd2; assay: cell-based; type: cell-based; conditions: […]; for activity at 45000 µM: [test solute]i = 45 mM (30 mM for some solutes due to solubility)
Outline: as §2

PfCRT [7] = assay: Potential co-substrates tested for influx of VF-6 via PfCRT into the oocyte; type: cell-based, Plasmodium falciparum; parameters: key: X: Compounds that have been tested as potential co-substrates but are not required for influx of VF-6 via PfCRT into the oocyte
PfCRT [8] = assay: Test of solutes as potential co-substrates for influx of VF-6 via PfCRT into the oocyte; type: cell-based, Plasmodium falciparum; parameters: key: X: Compounds that have been tested as potential co-substrates but are not required for influx of VF-6 via PfCRT into the oocyte; conditions: X = tested
non-expressing oocytes [9] = type: cell-based, Xenopus laevis; conditions: total [3H]CQ transport; for Uptake of [3H]CQ (% non-expressing oocyte control), trans-stimulation: non-expressing oocytes, normalised to the oocyte type control; for Uptake of [3H]CQ (% PfCRTDd2 control), trans-stimulation, non-expressing oocytes: mean ± SEM, SEM
Outline: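 Oocytes (ten per treatment, ≥4 independent frogs/days) were preloaded by injecting VF-6 in 25 nL ND96 at pH 5.0, 5.5, 6.0 or 7.0, or Na^+-free choline buffer, then uptake run 1.5 h, 27.5 °C, ND96 pH 5.5 by default. Internal concentrations assumed ~400 nL oocyte volume.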

non-expressing oocytes [10] = assay: cells; type: cell-based, Xenopus laevis; conditions: Xenopus laevis, total [3H]CQ transport; for inhibition at 500 µM: [test solute] = 0.5 mM; for inhibition at 1000 µM: [test solute] = 1 mM; for inhibition at 2000 µM: [test solute] = 2 mM
Outline: as §1

[11] = read-out: PfCRT-mediated [3H]CQ transport, cis-inhibition (% PfCRTEcu1110 control)
[12] = read-out: Uptake of [3H]CQ (% PfCRTDd2 control), cis-inhibition, PfCRTEcu1110, SEM
[13] = read-out: Uptake of [3H]CQ (% PfCRTEcu1110 control), cis-inhibition
[14] = read-out: [3H]CQ transport (% PfCRTEcu1110 control), cis-inhibition, PfCRTEcu1110, SEM
[15] = read-out: PfCRT-mediated [3H]CQ transport, cis-inhibition (% PfCRTDd2 control)
[16] = read-out: Uptake of [3H]CQ (% PfCRTDd2 control), cis-inhibition
[17] = read-out: Uptake of [3H]CQ (% PfCRTDd2 control), cis-inhibition, PfCRTDd2, SEM
[18] = read-out: [3H]CQ transport (% PfCRTDd2 control), cis-inhibition, PfCRTDd2, SEM
[19] = PfCRT3D7 oocytes, normalised to the oocyte type control, read-out: Uptake of [3H]CQ (% PfCRT3D7 control), cis-inhibition
[20] = mean ± SEM, SEM, read-out: Uptake of [3H]CQ (% PfCRTDd2 control), cis-inhibition, PfCRT3D7
[21] = Oocyte, mean ± SEM, SEM, read-out: Uptake of [3H]CQ (% PfCRTDd2 control), cis-inhibition, non-expressing oocytes
[22] = non-expressing oocytes, normalised to the oocyte type control, read-out: Uptake of [3H]CQ (% non-expressing oocyte control), cis-inhibition

T3 sequence (Q8IBZ9 59-398): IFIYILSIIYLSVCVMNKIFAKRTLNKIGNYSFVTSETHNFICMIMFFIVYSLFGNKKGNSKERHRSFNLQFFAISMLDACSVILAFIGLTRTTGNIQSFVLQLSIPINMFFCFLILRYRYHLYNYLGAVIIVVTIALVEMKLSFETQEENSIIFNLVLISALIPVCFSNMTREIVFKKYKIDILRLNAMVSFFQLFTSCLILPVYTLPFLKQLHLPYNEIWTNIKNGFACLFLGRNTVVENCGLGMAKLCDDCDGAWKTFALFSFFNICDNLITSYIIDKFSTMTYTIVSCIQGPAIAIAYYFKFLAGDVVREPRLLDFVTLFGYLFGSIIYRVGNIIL
T2 sequence (Q9N623 whole entry A220S/I356T/K76T/M74I/N326S/N75E/Q271E/R371I): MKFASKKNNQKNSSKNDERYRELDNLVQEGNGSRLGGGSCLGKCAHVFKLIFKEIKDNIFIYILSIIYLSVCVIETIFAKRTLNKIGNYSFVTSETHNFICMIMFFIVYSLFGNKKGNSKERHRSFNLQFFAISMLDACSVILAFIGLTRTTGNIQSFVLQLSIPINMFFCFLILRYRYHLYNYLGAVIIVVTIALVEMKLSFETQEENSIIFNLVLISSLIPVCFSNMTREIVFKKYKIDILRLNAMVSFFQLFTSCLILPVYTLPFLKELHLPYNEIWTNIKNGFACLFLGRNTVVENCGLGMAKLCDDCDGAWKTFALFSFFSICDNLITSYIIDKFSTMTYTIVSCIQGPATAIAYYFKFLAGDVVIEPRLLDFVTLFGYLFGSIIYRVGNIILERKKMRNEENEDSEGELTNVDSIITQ
T4 sequence (Q8IDM6 whole entry): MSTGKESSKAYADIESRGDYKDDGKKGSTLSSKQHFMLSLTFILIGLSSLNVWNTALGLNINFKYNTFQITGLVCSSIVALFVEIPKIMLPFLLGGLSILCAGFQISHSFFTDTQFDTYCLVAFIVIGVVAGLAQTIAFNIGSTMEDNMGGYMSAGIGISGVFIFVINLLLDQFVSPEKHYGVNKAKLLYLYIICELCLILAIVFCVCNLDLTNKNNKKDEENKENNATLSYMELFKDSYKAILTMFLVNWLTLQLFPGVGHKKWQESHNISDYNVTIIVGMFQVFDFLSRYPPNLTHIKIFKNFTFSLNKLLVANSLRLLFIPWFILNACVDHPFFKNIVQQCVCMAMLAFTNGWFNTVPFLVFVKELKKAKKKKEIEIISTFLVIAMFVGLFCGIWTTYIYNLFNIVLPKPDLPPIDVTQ
T1 sequence (Q9N623 whole entry A220S/I356L/K76T/N326D): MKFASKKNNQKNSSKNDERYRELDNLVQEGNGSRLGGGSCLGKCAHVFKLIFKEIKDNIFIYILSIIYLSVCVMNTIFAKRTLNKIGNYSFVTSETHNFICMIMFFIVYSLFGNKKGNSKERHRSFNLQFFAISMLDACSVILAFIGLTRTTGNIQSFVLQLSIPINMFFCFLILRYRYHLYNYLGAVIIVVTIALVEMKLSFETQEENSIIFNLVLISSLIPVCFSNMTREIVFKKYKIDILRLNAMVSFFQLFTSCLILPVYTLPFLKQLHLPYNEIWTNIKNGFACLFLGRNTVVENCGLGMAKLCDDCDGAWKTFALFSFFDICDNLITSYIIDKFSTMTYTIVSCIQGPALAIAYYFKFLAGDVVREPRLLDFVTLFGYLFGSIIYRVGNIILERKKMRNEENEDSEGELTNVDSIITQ

## N[C@@H](Cc1c[nH]c2ccccc12)C(=O)O [L-tryptophan]
PfCRT^Ecu1110 [1]; [11]
  inhibition at 500 µM: 96 ± 3.7%
  inhibition at 1000 µM: 95 ± 4.6%
PfCRT^Ecu1110 [1]; [12]
  inhibition at 500 µM: 32 ± 1.6%
  inhibition at 1000 µM: 32 ± 0.6%
  inhibition at 2000 µM: 33 ± 1.4%
PfCRT^Ecu1110 [1]; [13]
  inhibition at 500 µM: 98 ± 2.5%
  inhibition at 1000 µM: 97 ± 2.7%
  inhibition at 2000 µM: 101 ± 3.1%
PfCRT^Ecu1110 [1]; [14]
  inhibition at 500 µM: 29 ± 1.3%
  inhibition at 1000 µM: 29 ± 0.3%
  inhibition at 2000 µM: 30 ± 1.4%
PfCRT^Dd2 [2]; [15]
  inhibition at 500 µM: 94 ± 4.6%
  inhibition at 1000 µM: 95 ± 1.9%
  inhibition at 2000 µM: 95 ± 1.9%
PfCRT^Dd2 [2]; [16]
  inhibition at 1000 µM: 97 ± 2.6%
  inhibition at 2000 µM: 97 ± 2.5%
PfCRT^Dd2 [2]; [17]
  inhibition at 500 µM: 96 ± 2.1%
  inhibition at 1000 µM: 97 ± 2.6%
  inhibition at 2000 µM: 97 ± 2.5%
PfCRT^Dd2 [2]; [18]
  inhibition at 1000 µM: 95 ± 1.9%
  inhibition at 2000 µM: 95 ± 1.9%
PfCRT^3D7 [3]; [19]
  inhibition at 500 µM: 100 ± 3.2%
  inhibition at 1000 µM: 99 ± 4.6%
  inhibition at 2000 µM: 100 ± 3.6%
PfCRT^3D7 [3]; [20]
  inhibition at 500 µM: 2.7 ± 0.03%
  inhibition at 1000 µM: 2.5 ± 0.04%
  inhibition at 2000 µM: 2.7 ± 0.04%
PfNT1; PfNT1 oocytes, [test solute]i = 5 mM, normalised to the oocyte type control, read-out: Uptake of [3H]CQ (% PfNT1 control), trans-stimulation
  activity at 5000 µM: 101 ± 3.9%
PfNT1; SEM, read-out: Uptake of [3H]CQ (% PfCRTDd2 control), trans-stimulation, PfNT1
  activity at 45000 µM: 2.1 ± 0.03%
PfNT1; read-out: Uptake of [3H]CQ (% PfNT1 control), trans-stimulation
  activity at 45000 µM: 98 ± 3.2%
PfNT1; [test solute]i = 5 mM (intracellular), mean ± SEM, SEM, read-out: Uptake of [3H]CQ (% PfCRTDd2 control), trans-stimulation, PfNT1
  activity at 5000 µM: 2.7 ± 0.05%
PfCRT^3D7 [4]; PfCRT3D7 oocytes, [test solute]i = 5 mM, total [3H]CQ transport, normalised to the oocyte type control, read-out: Uptake of [3H]CQ (% PfCRT3D7 control), trans-stimulation
  activity at 5000 µM: 100 ± 3.5%
PfCRT^3D7 [4]; SEM
  [3H]CQ transport (% PfCRT3D7 control), trans-stimulation, PfCRT3D7: 0.3 ± 0.02 % PfCRT3D7 control
PfCRT^3D7 [4]; [test solute]i = 5 mM (intracellular), PfCRT3D7 oocytes, normalised to oocyte type control, read-out: PfCRT-mediated [3H]CQ transport, trans-stimulation (% PfCRT3D7 control)
  activity at 5000 µM: 98 ± 4.7%
PfCRT^3D7 [4]; SEM, read-out: Uptake of [3H]CQ (% PfCRTDd2 control), trans-stimulation, PfCRT3D7
  activity at 45000 µM: 3.4 ± 0.06%
PfCRT^3D7 [4]; read-out: PfCRT-mediated [3H]CQ transport, trans-stimulation (% PfCRT3D7 control)
  activity at 45000 µM: 99 ± 3.4%
PfCRT^3D7 [4]; read-out: Uptake of [3H]CQ (% PfCRT3D7 control), trans-stimulation
  activity at 45000 µM: 101 ± 2.5%
PfCRT^3D7 [4]; total [3H]CQ transport, [test solute]i = 5 mM (intracellular), mean ± SEM, SEM, read-out: Uptake of [3H]CQ (% PfCRTDd2 control), trans-stimulation, PfCRT3D7
  activity at 5000 µM: 3.3 ± 0.06%
PfCRT^Ecu1110 [5]; pH 5.5, read-out: PfCRT-mediated [3H]CQ transport, trans-stimulation (% PfCRTEcu1110 control), [test solute]i = 5 mM (intracellular), PfCRTEcu1110 oocytes, normalised to oocyte type control
  activity at 5000 µM: 97 ± 2.2%
PfCRT^Ecu1110 [5]; pH 5.5, read-out: Uptake of [3H]CQ (% PfCRTEcu1110 control), trans-stimulation, PfCRTEcu1110 oocytes, [test solute]i = 5 mM, total [3H]CQ transport, normalised to the oocyte type control
  activity at 5000 µM: 99 ± 3.1%
PfCRT^Ecu1110 [5]; pH 5.5, read-out: Uptake of [3H]CQ (% PfCRTEcu1110 control), trans-stimulation, PfCRTEcu1110 oocytes, [test solute]i = 45 mM (30 mM for some solutes due to solubility), total [3H]CQ transport, normalised to the oocyte type control
  activity at 45000 µM: 99 ± 3.5%
PfCRT^Ecu1110 [5]; read-out: Uptake of [3H]CQ (% PfCRTDd2 control), trans-stimulation, PfCRTEcu1110, total [3H]CQ transport, [test solute]i = 5 mM (intracellular), mean ± SEM, SEM
  activity at 5000 µM: 35 ± 1.9%
PfCRT^Ecu1110 [5]; read-out: Uptake of [3H]CQ (% PfCRTDd2 control), trans-stimulation, PfCRTEcu1110, total [3H]CQ transport, [test solute]i = 45 mM (intracellular; 30 mM for some solutes due to solubility), mean ± SEM, SEM
  activity at 45000 µM: 35 ± 2.1%
PfCRT^Dd2 [6]; pH 5.5, read-out: PfCRT-mediated [3H]CQ transport, trans-stimulation (% PfCRTDd2 control), [test solute]i = 5 mM (intracellular), PfCRTDd2 oocytes, normalised to oocyte type control
  activity at 5000 µM: 98 ± 1.6%
PfCRT^Dd2 [6]; pH 5.5, read-out: Uptake of [3H]CQ (% PfCRTDd2 control), trans-stimulation, PfCRTDd2, total [3H]CQ transport, [test solute]i = 5 mM (intracellular), mean ± SEM, SEM
  activity at 5000 µM: 100 ± 2.2%
PfCRT^Dd2 [6]; pH 5.5, read-out: Uptake of [3H]CQ (% PfCRTDd2 control), trans-stimulation, PfCRTDd2 oocytes, [test solute]i = 5 mM, total [3H]CQ transport, normalised to the oocyte type control
  activity at 5000 µM: 100 ± 2.2%
PfCRT^Dd2 [6]; pH 5.5, read-out: Uptake of [3H]CQ (% PfCRTDd2 control), trans-stimulation, PfCRTDd2 oocytes, total [3H]CQ transport, normalised to the oocyte type control
  activity at 45000 µM: 101 ± 2.4%
PfCRT^Dd2 [6]; pH 5.5, read-out: [3H]CQ transport (% PfCRTDd2 control), trans-stimulation, PfCRTDd2, trans-stimulation, [test solute]i = 5 mM (injected), PfCRT-mediated component (background subtracted), mean ± SEM, SEM
  activity at 5000 µM: 98 ± 1.6%
PfCRT^Dd2 [6]; pH 5.5, read-out: [3H]CQ transport (% PfCRTDd2 control), trans-stimulation, PfCRTDd2, trans-stimulation, PfCRT-mediated component (background subtracted), mean ± SEM, SEM
  activity at 45000 µM: 99 ± 1.9%
PfCRT [7]
  Tested as potential co-substrate but not required for influx of VF-6 via PfCRT into the oocyte: X
PfCRT [8]
  Tested as potential co-substrate but not required for influx of VF-6 via PfCRT into the oocyte: X
non-expressing oocytes [9]; [test solute]i = 5 mM
  Uptake of [3H]CQ (% non-expressing oocyte control), trans-stimulation: 98 ± 2.5 % non-expressing oocyte control
non-expressing oocytes [9]; [test solute]i = 45 mM (30 mM for some solutes due to solubility)
  Uptake of [3H]CQ (% non-expressing oocyte control), trans-stimulation: 99 ± 2.1 % non-expressing oocyte control
non-expressing oocytes [9]; [test solute]i = 5 mM (intracellular)
  Uptake of [3H]CQ (% PfCRTDd2 control), trans-stimulation, non-expressing oocytes: 3.0 ± 0.04 % PfCRTDd2 control
non-expressing oocytes [9]; [test solute]i = 45 mM (intracellular; 30 mM for some solutes due to solubility)
  Uptake of [3H]CQ (% PfCRTDd2 control), trans-stimulation, non-expressing oocytes: 3.2 ± 0.01 % PfCRTDd2 control
non-expressing oocytes [10]; [21]
  inhibition at 500 µM: 2.1 ± 0.07%
  inhibition at 1000 µM: 3.4 ± 0.1%
  inhibition at 2000 µM: 3.6 ± 0.09%
non-expressing oocytes [10]; [22]
  inhibition at 500 µM: 97 ± 3.2%
  inhibition at 1000 µM: 100 ± 3.6%
  inhibition at 2000 µM: 100 ± 6.3%
